Assay results as given in ChEMBL document CHEMBL3124838, “Discovery of 6-aryl-azabenzimidazoles that inhibit the TBK1/IKK-ε kinases” (Bioorg Med Chem Lett, 2014).

Experiments:
[1] = target: Mitogen-activated protein kinase 8 (Homo sapiens) (UniProt P45983); test: Inhibition of human JNK1alpha1 assessed as residual activity at 1 uM relative to control
[2] = target: Phosphatidylinositol 4-phosphate 5-kinase type-1 alpha (Homo sapiens) (UniProt Q99755); test: Inhibition of human PIP5K1alpha assessed as residual activity at 1 uM relative to control
Chain of Phosphatidylinositol 4-phosphate 5-kinase type-1 alpha (Homo sapiens) (Q99755 whole entry): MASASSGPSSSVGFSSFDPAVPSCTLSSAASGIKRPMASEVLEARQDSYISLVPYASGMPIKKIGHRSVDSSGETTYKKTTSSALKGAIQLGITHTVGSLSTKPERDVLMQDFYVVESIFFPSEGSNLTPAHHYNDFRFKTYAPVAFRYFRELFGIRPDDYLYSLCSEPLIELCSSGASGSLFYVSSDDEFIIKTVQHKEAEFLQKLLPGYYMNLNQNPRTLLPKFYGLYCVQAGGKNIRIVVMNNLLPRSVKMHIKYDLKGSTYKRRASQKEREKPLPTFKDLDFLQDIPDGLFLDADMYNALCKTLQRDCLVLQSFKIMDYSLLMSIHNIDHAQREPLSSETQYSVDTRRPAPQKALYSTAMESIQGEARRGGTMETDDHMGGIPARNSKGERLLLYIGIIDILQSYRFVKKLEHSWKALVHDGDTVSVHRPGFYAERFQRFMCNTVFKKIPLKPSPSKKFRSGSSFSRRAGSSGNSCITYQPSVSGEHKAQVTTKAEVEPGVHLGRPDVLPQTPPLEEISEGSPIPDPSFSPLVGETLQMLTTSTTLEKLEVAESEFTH

[3] = target: Serine/threonine-protein kinase PAK 2 (Homo sapiens) (UniProt Q13177); test: Inhibition of human PAK2 assessed as residual activity at 1 uM relative to control
Chain of Serine/threonine-protein kinase PAK 2 (Homo sapiens) (Q13177 whole entry): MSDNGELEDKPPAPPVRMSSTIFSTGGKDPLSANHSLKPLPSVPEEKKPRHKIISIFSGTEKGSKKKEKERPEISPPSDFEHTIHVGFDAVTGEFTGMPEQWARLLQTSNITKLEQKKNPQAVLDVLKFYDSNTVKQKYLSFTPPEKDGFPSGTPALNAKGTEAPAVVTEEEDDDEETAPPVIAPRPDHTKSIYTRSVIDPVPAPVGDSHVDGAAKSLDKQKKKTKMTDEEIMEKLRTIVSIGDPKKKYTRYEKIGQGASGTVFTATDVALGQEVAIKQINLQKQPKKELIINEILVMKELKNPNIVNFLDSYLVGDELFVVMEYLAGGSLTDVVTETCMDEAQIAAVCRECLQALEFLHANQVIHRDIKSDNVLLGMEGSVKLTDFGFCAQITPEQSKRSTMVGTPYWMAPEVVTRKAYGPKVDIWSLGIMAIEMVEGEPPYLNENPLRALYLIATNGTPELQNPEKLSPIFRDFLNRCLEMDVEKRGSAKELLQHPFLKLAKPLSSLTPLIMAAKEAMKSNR

[4] = target: PI3-kinase p110-alpha/p85-alpha (Homo sapiens) (UniProt P27986+P42336); test: Inhibition of human PI3K p110alpha/p85alpha assessed as residual activity at 1 uM relative to control; format: protein-complex assay
[5] = organism: Homo sapiens; test: Inhibition of human PKA assessed as residual activity at 1 uM relative to control
[6] = target: T1, Serine/threonine-protein kinase STK11 (Homo sapiens) (UniProt Q15831); test: Inhibition of human LKB1 assessed as residual activity at 1 uM relative to control
T1 sequence (whole entry): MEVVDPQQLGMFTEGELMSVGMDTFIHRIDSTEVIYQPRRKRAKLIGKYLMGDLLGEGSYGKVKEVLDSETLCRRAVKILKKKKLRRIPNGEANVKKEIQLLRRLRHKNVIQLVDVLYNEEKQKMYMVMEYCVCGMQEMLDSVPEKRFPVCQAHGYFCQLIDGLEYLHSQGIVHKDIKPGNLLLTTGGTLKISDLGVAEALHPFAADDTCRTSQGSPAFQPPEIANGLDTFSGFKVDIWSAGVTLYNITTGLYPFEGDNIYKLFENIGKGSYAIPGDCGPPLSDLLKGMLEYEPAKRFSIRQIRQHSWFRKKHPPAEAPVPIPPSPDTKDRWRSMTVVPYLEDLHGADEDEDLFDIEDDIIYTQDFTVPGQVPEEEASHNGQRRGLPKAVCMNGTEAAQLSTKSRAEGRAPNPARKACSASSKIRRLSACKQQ

[7] = target: T2, Interleukin-1 receptor-associated kinase 4 (Homo sapiens) (UniProt Q9NWZ3); test: Inhibition of human IRAK4 assessed as residual activity at 1 uM relative to control
T2 sequence (whole entry): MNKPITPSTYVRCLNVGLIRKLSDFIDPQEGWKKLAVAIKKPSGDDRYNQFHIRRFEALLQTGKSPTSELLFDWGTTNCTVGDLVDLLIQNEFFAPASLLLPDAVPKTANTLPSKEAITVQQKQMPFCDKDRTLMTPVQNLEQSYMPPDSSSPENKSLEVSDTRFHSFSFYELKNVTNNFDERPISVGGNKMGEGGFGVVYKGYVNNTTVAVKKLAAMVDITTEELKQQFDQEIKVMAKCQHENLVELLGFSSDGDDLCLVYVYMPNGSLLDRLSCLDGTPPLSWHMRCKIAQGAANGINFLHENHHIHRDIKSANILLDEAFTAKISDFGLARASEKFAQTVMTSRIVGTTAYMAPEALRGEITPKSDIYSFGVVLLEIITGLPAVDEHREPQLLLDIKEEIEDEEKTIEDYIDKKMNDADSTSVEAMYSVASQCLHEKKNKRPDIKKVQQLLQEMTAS

[8] = target: T3, Ephrin type-B receptor 4 (Homo sapiens) (UniProt P54760); test: Inhibition of human EPHB4 assessed as residual activity at 1 uM relative to control
T3 sequence (whole entry): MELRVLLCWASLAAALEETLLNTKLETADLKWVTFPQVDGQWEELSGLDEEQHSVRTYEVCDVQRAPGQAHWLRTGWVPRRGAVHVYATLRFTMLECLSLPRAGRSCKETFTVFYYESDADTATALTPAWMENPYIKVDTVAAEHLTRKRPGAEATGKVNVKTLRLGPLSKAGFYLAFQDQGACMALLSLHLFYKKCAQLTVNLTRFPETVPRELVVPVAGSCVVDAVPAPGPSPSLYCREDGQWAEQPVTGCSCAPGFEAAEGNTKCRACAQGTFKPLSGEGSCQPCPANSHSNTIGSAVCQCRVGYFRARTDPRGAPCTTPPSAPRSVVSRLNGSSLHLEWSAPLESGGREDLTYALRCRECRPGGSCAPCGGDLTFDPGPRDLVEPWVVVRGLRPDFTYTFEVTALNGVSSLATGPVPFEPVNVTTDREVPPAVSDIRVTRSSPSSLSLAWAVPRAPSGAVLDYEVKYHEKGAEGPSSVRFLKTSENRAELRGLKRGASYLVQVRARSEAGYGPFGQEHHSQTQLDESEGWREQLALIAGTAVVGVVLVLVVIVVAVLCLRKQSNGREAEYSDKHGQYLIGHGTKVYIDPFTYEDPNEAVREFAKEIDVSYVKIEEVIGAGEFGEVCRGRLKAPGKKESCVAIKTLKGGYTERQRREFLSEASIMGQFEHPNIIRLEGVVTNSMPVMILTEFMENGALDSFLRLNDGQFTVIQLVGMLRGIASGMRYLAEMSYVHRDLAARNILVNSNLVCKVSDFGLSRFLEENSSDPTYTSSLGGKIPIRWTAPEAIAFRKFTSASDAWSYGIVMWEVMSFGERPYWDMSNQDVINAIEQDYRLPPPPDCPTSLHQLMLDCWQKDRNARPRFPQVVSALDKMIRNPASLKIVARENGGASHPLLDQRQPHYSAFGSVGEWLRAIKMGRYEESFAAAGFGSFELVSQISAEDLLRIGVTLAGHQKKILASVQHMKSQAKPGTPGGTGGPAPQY

[9] = target: Casein kinase I isoform gamma-1 (Homo sapiens) (UniProt Q9HCP0); test: Inhibition of human CK1gamma1 assessed as residual activity at 1 uM relative to control
Chain of Casein kinase I isoform gamma-1 (Homo sapiens) (Q9HCP0 whole entry, looked up, canonical isoform): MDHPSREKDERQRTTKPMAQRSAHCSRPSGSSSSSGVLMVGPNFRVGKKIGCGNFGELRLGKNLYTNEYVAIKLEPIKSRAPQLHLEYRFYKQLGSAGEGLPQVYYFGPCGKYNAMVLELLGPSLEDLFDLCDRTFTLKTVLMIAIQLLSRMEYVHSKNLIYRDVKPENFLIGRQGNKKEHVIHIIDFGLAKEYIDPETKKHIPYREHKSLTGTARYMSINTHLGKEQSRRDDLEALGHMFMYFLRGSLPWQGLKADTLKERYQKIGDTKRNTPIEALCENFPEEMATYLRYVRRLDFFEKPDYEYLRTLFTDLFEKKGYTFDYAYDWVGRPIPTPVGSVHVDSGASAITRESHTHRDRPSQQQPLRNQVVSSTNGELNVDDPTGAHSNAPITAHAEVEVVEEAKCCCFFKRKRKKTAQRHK

[10] = target: T4, TGF-beta receptor type-1 (Homo sapiens) (UniProt P36897); test: Inhibition of human TGFBR1 assessed as residual activity at 1 uM relative to control
T4 sequence (whole entry): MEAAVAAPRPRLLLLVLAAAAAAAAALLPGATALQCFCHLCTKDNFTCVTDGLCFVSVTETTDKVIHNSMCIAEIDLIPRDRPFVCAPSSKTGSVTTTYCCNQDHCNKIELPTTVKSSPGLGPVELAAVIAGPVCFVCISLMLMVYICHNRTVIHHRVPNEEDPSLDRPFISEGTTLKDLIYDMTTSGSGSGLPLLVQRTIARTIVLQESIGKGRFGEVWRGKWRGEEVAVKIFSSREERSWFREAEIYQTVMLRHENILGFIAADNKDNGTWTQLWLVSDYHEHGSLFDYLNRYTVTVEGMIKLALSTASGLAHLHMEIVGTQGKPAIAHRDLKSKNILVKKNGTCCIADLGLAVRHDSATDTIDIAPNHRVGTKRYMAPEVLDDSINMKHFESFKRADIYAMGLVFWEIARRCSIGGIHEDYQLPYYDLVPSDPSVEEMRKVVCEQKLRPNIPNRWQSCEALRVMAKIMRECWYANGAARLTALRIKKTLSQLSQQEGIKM

[11] = target: Serine/threonine-protein kinase 10 (Homo sapiens) (UniProt O94804); test: Inhibition of human LOK assessed as residual activity at 1 uM relative to control
Chain of Serine/threonine-protein kinase 10 (Homo sapiens) (O94804 whole entry, looked up): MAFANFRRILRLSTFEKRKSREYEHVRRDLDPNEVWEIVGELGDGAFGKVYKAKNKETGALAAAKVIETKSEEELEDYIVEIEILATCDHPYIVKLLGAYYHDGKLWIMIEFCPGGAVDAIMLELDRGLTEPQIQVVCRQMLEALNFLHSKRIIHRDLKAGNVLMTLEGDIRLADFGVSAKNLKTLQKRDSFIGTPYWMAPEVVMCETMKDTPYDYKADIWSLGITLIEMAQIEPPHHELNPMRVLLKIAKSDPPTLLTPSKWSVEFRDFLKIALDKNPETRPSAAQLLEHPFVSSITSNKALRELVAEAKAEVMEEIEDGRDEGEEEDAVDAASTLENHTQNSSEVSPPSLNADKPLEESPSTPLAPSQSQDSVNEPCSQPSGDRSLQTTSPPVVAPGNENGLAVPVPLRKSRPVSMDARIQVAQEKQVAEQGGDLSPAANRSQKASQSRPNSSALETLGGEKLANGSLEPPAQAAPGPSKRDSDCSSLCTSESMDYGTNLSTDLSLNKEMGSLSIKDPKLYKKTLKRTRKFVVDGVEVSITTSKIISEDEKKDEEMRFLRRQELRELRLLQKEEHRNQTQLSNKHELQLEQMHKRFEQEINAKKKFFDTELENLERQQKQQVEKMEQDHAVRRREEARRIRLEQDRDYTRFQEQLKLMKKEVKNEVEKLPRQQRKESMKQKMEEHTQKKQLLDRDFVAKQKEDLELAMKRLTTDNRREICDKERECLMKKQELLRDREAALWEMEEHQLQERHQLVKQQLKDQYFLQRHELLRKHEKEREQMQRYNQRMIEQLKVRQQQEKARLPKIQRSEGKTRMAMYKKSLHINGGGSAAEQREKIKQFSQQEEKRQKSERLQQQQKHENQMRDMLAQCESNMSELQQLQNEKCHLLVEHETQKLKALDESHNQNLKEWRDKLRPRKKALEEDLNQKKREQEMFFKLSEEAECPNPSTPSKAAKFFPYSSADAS

Chain of Mitogen-activated protein kinase 8 (Homo sapiens) (P45983 whole entry): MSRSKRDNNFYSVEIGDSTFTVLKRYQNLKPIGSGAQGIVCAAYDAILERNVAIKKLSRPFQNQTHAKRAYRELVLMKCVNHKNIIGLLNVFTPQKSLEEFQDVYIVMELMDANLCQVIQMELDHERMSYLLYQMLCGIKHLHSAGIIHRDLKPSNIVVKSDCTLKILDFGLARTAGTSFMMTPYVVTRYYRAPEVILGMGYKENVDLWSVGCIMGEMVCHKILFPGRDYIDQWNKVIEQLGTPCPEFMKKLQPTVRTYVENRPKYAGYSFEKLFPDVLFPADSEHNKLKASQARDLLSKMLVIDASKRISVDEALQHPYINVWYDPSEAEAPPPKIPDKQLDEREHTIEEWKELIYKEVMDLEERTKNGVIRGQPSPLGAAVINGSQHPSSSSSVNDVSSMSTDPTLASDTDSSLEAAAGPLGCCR

COc1ccc(-c2nc3cc(-c4csc(C(=O)NCCC(C)C)c4)cnc3[nH]2)cc1
Activity [1]: 98%
Activity [2]: 99%
Activity [3]: 94%
Activity [4]: 88%
Activity [5]: 97%
Activity [6]: 97%
Activity [7]: 81%
Activity [8]: 95%
Activity [9]: 29%
Activity [10]: 85%
Activity [11]: 97%

COc1ccc(-c2nc3cc(-c4csc(C(=O)NCC(C)(C)C)c4)cnc3[nH]2)cc1
Activity [1]: 98%
Activity [2]: 95%
Activity [3]: 92%
Activity [4]: 86%
Activity [5]: 82%
Activity [6]: 81%
Activity [7]: 81%
Activity [8]: 79%
Activity [9]: 65%
Activity [10]: 111%
Activity [11]: 102%

COc1ccc(-c2nc3cc(-c4csc(C(=O)NCC(C)C)c4)cnc3[nH]2)cc1
Activity [1]: 117%
Activity [2]: 99%
Activity [3]: 90%
Activity [4]: 91%
Activity [5]: 89%
Activity [6]: 92%
Activity [7]: 75%
Activity [8]: 74%
Activity [9]: 44%
Activity [10]: 104%
Activity [11]: 100%
